Reference: PMC9636582 (The Journal of Biological Chemistry, 2022)

Experiments:
[1] = biological target: T1, GAL4-PPARα LBD (Homo sapiens, UniProt Q07869); assay: GAL4-PPARα LBD luciferase reporter assay in HEK293 cells; type: cell-based; conditions: for ligand-induced activation of PPARα (in words): 100 μM fatty acids, Fig. 1B
T1 construct: chimeric receptors containing the LBD of various NRs; expressed in transfected cells; host or cells: HEK293
T1 sequence (Q07869 239-466 limits assumed): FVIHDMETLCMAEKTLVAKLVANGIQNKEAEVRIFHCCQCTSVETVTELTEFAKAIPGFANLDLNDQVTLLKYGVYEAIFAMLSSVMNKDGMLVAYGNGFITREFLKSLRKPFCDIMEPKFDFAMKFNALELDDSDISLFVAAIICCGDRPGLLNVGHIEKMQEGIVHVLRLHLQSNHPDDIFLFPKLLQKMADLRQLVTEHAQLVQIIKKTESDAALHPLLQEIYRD

[2] = biological target: T2, GAL4-PPARδ LBD (Homo sapiens, UniProt Q03181); assay: GAL4-PPARδ LBD luciferase reporter assay in HEK293 cells; type: cell-based; conditions: for PPARδ activation (in words): 100 μM fatty acids, Fig. 1B
T2 construct: chimeric receptors containing the LBD of various NRs; expressed in transfected cells; host or cells: HEK293
T2 sequence (Q03181 211-439 limits assumed): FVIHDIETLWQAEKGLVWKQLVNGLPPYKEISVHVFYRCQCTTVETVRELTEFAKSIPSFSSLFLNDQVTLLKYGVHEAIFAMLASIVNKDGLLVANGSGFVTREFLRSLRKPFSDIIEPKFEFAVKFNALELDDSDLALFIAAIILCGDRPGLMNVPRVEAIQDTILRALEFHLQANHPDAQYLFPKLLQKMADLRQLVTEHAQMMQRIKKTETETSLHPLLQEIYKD

[3] = tested on: human intestinal organoids; assay: PPARδ target gene mRNA expression in human intestinal organoids (RT-qPCR); type: cell-based; conditions: 1 μM GW1516 or 30 μM fatty acids for 24 h
[4] = biological target: T3, VP16-PPARα / GAL4-SRC-1 (Homo sapiens, UniProt Q07869); assay: mammalian two-hybrid assay, VP16-PPARα and coactivator GAL4-SRC-1; type: cell-based; conditions: 30 μM fatty acids, 1 μM GW7647, HEK293 cells, Fig. 3B
T3 construct: expressed in transfected cells; host or cells: HEK293
T3 sequence (Q07869 1-468): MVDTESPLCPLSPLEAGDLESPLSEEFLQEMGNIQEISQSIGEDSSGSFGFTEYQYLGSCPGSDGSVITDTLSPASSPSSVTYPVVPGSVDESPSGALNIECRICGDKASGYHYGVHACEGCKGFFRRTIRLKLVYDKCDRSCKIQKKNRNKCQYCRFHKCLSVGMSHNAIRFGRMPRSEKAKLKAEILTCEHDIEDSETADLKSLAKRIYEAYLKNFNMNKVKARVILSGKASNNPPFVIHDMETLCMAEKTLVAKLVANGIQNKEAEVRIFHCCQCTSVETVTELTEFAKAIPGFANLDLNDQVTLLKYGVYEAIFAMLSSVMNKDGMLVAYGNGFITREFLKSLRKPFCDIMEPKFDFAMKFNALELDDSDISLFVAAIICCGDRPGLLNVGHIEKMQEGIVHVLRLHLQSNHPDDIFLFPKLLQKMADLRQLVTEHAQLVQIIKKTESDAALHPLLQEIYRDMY
T3 sequence (Q15788 595-771 partner limits assumed): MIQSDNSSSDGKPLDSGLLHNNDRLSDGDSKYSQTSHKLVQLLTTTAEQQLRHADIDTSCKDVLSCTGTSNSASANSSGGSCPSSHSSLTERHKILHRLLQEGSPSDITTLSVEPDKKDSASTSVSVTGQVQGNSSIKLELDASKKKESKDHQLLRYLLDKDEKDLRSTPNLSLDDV

[5] = biological target: T4, VP16-PPARδ / GAL4-SRC-1 (Homo sapiens, UniProt Q03181); assay: mammalian two-hybrid assay, VP16-PPARδ and coactivator GAL4-SRC-1; type: cell-based; conditions: 30 μM fatty acids, 100 nM GW1516, HEK293 cells, Fig. 3A
T4 construct: expressed in transfected cells; host or cells: HEK293
T4 sequence (Q03181 1-441): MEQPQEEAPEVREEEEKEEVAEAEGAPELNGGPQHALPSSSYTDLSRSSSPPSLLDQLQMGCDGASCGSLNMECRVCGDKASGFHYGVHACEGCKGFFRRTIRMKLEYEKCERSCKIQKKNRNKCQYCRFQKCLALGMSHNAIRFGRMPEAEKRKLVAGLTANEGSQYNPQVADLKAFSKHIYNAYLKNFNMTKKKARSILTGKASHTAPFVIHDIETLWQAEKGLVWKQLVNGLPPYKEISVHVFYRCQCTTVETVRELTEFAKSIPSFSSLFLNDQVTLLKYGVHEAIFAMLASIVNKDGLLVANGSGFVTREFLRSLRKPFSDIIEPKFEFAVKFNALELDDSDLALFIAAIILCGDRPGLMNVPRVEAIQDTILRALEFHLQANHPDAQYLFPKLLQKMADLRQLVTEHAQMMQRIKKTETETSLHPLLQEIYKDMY
T4 sequence (Q15788 595-771 partner limits assumed): T3 sequence (Q15788 595-771 partner limits assumed)

[6] = biological target: T5, VP16-PPARα / GAL4-NCoR (Homo sapiens, UniProt Q07869); assay: mammalian two-hybrid assay, VP16-PPARα and corepressor NCoR; type: cell-based; conditions: 30 μM fatty acids, HEK293 cells, Fig. 3D
T5 construct: expressed in transfected cells; host or cells: HEK293
T5 sequence (Q07869 1-468): T3 sequence (Q07869 1-468)

[7] = biological target: T6, VP16-PPARδ / GAL4-NCoR (Homo sapiens, UniProt Q03181); assay: mammalian two-hybrid assay, VP16-PPARδ and corepressor NCoR; type: cell-based; conditions: 30 μM fatty acids, HEK293 cells, Fig. 3C
T6 construct: expressed in transfected cells; host or cells: HEK293
T6 sequence (Q03181 1-441): T4 sequence (Q03181 1-441)

[8] = biological target: T7, full-length PPARδ (Homo sapiens, UniProt Q03181); assay: full-length PPARδ PPRE luciferase reporter assay in HEK293 cells; type: cell-based; conditions: Fig. 1C
T7 construct: expressed in transfected cells; host or cells: HEK293
T7 sequence (Q03181 1-441): T4 sequence (Q03181 1-441)
Text: Luciferase activities were normalized to β-galactosidase activities.

[9] = biological target: T8, recombinant human PPARδ LBD protein (Homo sapiens, UniProt Q03181); assay: [14C] DHA competitive ligand-binding assay; conditions: 100 nM [14C] DHA, 1 μM nonlabeled fatty acids, overnight at 4 °C
T8 construct: Human PPARδ LBD (140–442) construct was cloned into a pGEX-4T1 vector; GST (N, cleaved yes); made in house; host or cells: Escherichia coli BL21 (DE3) pLys
T8 sequence (Q03181 140-441 limits assumed): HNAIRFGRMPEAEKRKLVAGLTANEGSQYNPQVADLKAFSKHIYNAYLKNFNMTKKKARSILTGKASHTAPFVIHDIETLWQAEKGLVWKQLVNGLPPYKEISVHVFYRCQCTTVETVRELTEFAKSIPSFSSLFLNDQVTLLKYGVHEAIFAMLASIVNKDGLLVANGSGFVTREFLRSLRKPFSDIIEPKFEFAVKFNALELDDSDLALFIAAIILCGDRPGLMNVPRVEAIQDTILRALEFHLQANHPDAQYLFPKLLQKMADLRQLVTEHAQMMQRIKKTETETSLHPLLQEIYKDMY
Experimental: To identify the mechanism underlying the activation of PPARδ by GLA-derived fatty acids, we performed a [^14C] DHA competitive ligand-binding assay describing the displacement of ligands from receptors with recombinant human PPARδ LBD protein produced by a bacterial expression system (Figs. 4, A and B and S2). PPARδ LBD or glutathione-S-transferase (GST) recombinant protein was incubated with both [^14C] […] A competitive inhibition of [^14C] DHA binding was analyzed as a direct binding to PPARδ LBD (see Experimental procedures). […] DHA binding to PPARδ LBD competitively (Fig. 4C).
Human PPARδ LBD (140–442) construct was cloned into a pGEX-4T1 vector (GE Healthcare Life Sciences) at the restriction enzyme site of SmaI and XhoI. The protein was expressed in Eschericia coli BL21 (DE3) pLys cells (Novagen) as a C-terminal fusion to a GST tag with a thrombin cleavage site. A single colony was cultured in 2 ml of LB media supplemented with 20 μg/ml of ampicillin and 30 μg/ml of chloramphenicol at 37 °C and 200 rpm for 18 h. The preculture was then transferred to 1 l of LB media until the A600 reached 0.6 to 0.8. IPTG was added to produce a final concentration of 0.4 mM, and expression was continued at 24 °C and 150 rpm for 18 h. Cells were collected using centrifugation, and pellets were resuspended in lysis buffer comprising 50 mM Tris–HCl (pH 7.5), 150 mM NaCl, 5 mM DTT, 1 mM EDTA, and 10% glycerol before sonication was performed. The supernatant was then collected using centrifugation at 100,000g and 4 °C for 70 min, after which it was loaded onto GST Accept (nacalai tesque) and equilibrated using the lysis buffer. Subsequently, the column was washed using five column volumes of the lysis buffer and thrombin cleavage buffer comprising 20 mM Tri–HCl (pH 8.4), 150 mM NaCl, 2.5 mM CaCl2, and 1 mM DTT, respectively. The GST tag was removed via digestion using biotinylated thrombin (Merck) for 18 h at 4 °C. The biotinylated thrombin was removed using Dynabeads M-280 streptavidin (Veritas). The purity of the target proteins was verified using SDS-PAGE.
A ligand-binding assay was performed as described previously with minor modifications ([72]). Briefly, purified recombinant human PPARδ LBD protein was incubated with 100 nM ([…]) [^14C] DHA in GP buffer (137 mM NaCl, 8.1 mM Na2HPO4, 2.68 mM KCl, 1.47 mM KH2PO4, 1% sodium azide, and 0.1% gelatin) overnight at 4 °C with or without various competitors (1 μM), including DHA and GLA-derived fatty acids. Unbound ligands were removed by adsorption to 3% dextran-coated charcoal, and the supernatant was collected. The PPARδ-bound [^14C] DHA was measured using a scintillation counter (PerkinElmer).

Row | SMILES | ligand-induced activation of PPARα (in words) [1] | PPARδ activation (in words) [2] | further results
1 | CC/C=C\C/C=C\C/C=C\C/C=C\C/C=C\C/C=C\CCC(=O)O [DHA, docosahexaenoic acid, reference compound] | – | – | EC50 ([1]; GAL4-PPARα LBD, calculated from luciferase activity with Quest Graph EC50 Calculator): 9.32 µM; EC50 ([2]; GAL4-PPARδ LBD, calculated from luciferase activity with Quest Graph EC50 Calculator): 44.6 µM
2 | Cc1cc(SCc2sc(-c3ccc(C(F)(F)F)cc3)nc2C)ccc1OCC(=O)O [GW1516, reference compound] | – | – | expression of PPARδ target genes (CPT1A, HMGCS2, PDK4, ACSL1) [3]: upregulated the mRNA expression of target genes
3 | CC/C=C\CC(O)CCC(O)CCCCCCCCC(=O)O (centres unmarked) [αHYE] | little or no effect | – | –
4 | CC/C=C\CC(=O)CC/C=C\CCCCCCCC(=O)O [αKetoD] | little or no effect | – | –
5 | CCCCCC(O)CCC(O)CC/C=C\CCCCC(=O)O (stereo not drawn) [γHYE, 10,13-dihydroxy-cis-6-octadecenoic acid] | – | more robust PPARδ activation than their original compound, GLA | recruitment of coactivator SRC-1 to PPARα [4]: induced coactivator-recruitment; recruitment of coactivator SRC-1 to PPARδ [5]: induced coactivator-recruitment; interaction between PPARα and corepressor NCoR [6]: reduced the interaction; interaction between PPARδ and corepressor NCoR [7]: reduced the interaction; transactivation of full-length PPARδ (in words) [8]: activated PPARδ potently; competitive displacement of [14C] DHA binding to PPARδ LBD [9]: displaced [^14C] DHA binding to PPARδ LBD competitively

Further lines, with some results ahead:

Row | ligand-induced activation of PPARα (in words) [1] | PPARδ activation (in words) [2] | SMILES | further results
6 | little or no effect | effective | CCCCCC(O)CC/C=C\CCCCCCCC(=O)O (centres unmarked) [HYD] | –
7 | little or no effect | effective | CCCCCC(O)CCC(O)CCCCCCCCC(=O)O (centres unmarked) [HYE] | –
8 | little or no effect | effective | CCCCCC(=O)CC/C=C\CCCCCCCC(=O)O [KetoD] | –
9 | little or no effect | effective | CC/C=C\CC(O)CC/C=C\CCCCCCCC(=O)O (centres unmarked) [αHYD] | –
